Results reported in patent US12568972B2, “Pyridazinol compounds and derivatives, preparation methods, herbicidal compositions and applications thereof” (Qingdao Kingagroot Chemical Compound Co., Ltd., priority 2018, dated 2026).

What was measured:
Assay in all cases: Post-emergence test, weed control effect
Format in all cases: in vivo
Conditions in all cases: after 3 weeks
[1] = tested on: Amaranthus retroflexus
In short: (§1)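 Weeds sown in soil-filled pots and sprayed at 2-3 leaf stage (2-3 weeks after sowing) with compound in acetone/Tween-80/water plus 80% vegetable oil methyl ester synergist at 1500 g/ha. After 3 weeks in the greenhouse, fresh-weight growth inhibition scored on a 0-10 scale (10 = completely dead).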

[2] = tested on: Rorippa indica
In short: as §1

[3] = tested on: Veronica polita
In short: as §1

[4] = tested on: Chenopodiaceae
In short: as §1

Oc1cc(C(F)(F)F)nnc1-c1ccc(OC(F)(F)F)cc1 [Compound 128]
10: weed control effect (activity level), Amaranthus retroflexus ([1]; dose 1000 g/ha) | weed control effect (activity level), Rorippa indica ([2]; dose 1000 g/ha) | weed control effect (activity level), Veronica polita ([3]; dose 1000 g/ha) | weed control effect (activity level), Chenopodiaceae ([4]; dose 1000 g/ha)

CCCOC(=S)Oc1cc(C(F)(F)F)nnc1-c1ccc(OC)cc1 [Compound 1-156]
10: weed control effect, Amaranthus retroflexus (activity level) ([1]; Dose 3000 g/ha) | weed control effect, Rorippa indica (activity level) ([2]; Dose 3000 g/ha) | weed control effect, Veronica polita (activity level) ([3]; Dose 3000 g/ha) | weed control effect, Chenopodiaceae (activity level) ([4]; Dose 3000 g/ha)

Oc1cc(C(F)(F)F)nnc1-c1cnc(Cl)c(Cl)c1 [Compound 994]
10: weed control effect (activity level), Amaranthus retroflexus ([1]; Dose 3000 g/ha) | weed control effect (activity level), Rorippa indica ([2]; Dose 3000 g/ha) | weed control effect (activity level), Veronica polita ([3]; Dose 3000 g/ha) | weed control effect (activity level), Chenopodiaceae ([4]; Dose 3000 g/ha)

CCCCCC/C(C)=N\Oc1cc(C(F)(F)F)nnc1-c1ccc(Cl)cc1Cl [Compound 1-176]
10: weed control effect, Amaranthus retroflexus (activity level) ([1]; Dose 3000 g/ha) | weed control effect, Rorippa indica (activity level) ([2]; Dose 3000 g/ha) | weed control effect, Veronica polita (activity level) ([3]; Dose 3000 g/ha) | weed control effect, Chenopodiaceae (activity level) ([4]; Dose 3000 g/ha)

O=C(Oc1cc(C(F)(F)F)nnc1-c1ccc(Cl)cc1)c1ccc2ccccc2n1 [Compound 1-116]
10: weed control effect, Amaranthus retroflexus (activity level) ([1]; Dose 3000 g/ha) | weed control effect, Rorippa indica (activity level) ([2]; Dose 3000 g/ha) | weed control effect, Veronica polita (activity level) ([3]; Dose 3000 g/ha) | weed control effect, Chenopodiaceae (activity level) ([4]; Dose 3000 g/ha)

Oc1cc(C(F)(F)F)nnc1-c1ccnn1Cc1ccccc1 [Compound 833]
10: weed control effect (activity level), Amaranthus retroflexus ([1]; Dose 3000 g/ha) | weed control effect (activity level), Rorippa indica ([2]; Dose 3000 g/ha) | weed control effect (activity level), Veronica polita ([3]; Dose 3000 g/ha) | weed control effect (activity level), Chenopodiaceae ([4]; Dose 3000 g/ha)

Oc1cc(C(F)(F)F)nnc1-c1cncc(Cl)c1F [Compound 1008]
10: weed control effect (activity level), Amaranthus retroflexus ([1]; Dose 3000 g/ha) | weed control effect (activity level), Rorippa indica ([2]; Dose 3000 g/ha) | weed control effect (activity level), Veronica polita ([3]; Dose 3000 g/ha) | weed control effect (activity level), Chenopodiaceae ([4]; Dose 3000 g/ha)

Cc1cc(Cl)ccc1-c1nnc(C(F)(F)F)cc1O [Compound 71]
10: weed control effect (activity level), Amaranthus retroflexus ([1]; dose 1000 g/ha) | weed control effect (activity level), Rorippa indica ([2]; dose 1000 g/ha) | weed control effect (activity level), Veronica polita ([3]; dose 1000 g/ha) | weed control effect (activity level), Chenopodiaceae ([4]; dose 1000 g/ha)

Cc1nc(F)ccc1-c1nnc(C(F)(F)F)cc1O [Compound 223]
10: weed control effect (activity level), Amaranthus retroflexus ([1]; dose 2000 g/ha) | weed control effect (activity level), Rorippa indica ([2]; dose 2000 g/ha) | weed control effect (activity level), Veronica polita ([3]; dose 2000 g/ha) | weed control effect (activity level), Chenopodiaceae ([4]; dose 2000 g/ha)

CCCC(C)CC/C(C)=N\Oc1cc(C(F)(F)F)nnc1-c1ccccc1 (stereo not drawn) [Compound 1-181]
10: weed control effect, Amaranthus retroflexus (activity level) ([1]; Dose 3000 g/ha) | weed control effect, Rorippa indica (activity level) ([2]; Dose 3000 g/ha) | weed control effect, Veronica polita (activity level) ([3]; Dose 3000 g/ha) | weed control effect, Chenopodiaceae (activity level) ([4]; Dose 3000 g/ha)

O=C(Oc1cc(C(F)(F)F)nnc1-c1ccc(F)cc1)c1cc(F)cc(F)c1F [Compound 1-93]
10: weed control effect, Amaranthus retroflexus (activity level) ([1]; Dose 3000 g/ha) | weed control effect, Rorippa indica (activity level) ([2]; Dose 3000 g/ha) | weed control effect, Veronica polita (activity level) ([3]; Dose 3000 g/ha) | weed control effect, Chenopodiaceae (activity level) ([4]; Dose 3000 g/ha)

O=C(Oc1cc(C(F)(F)F)nnc1-c1ccc(Cl)cc1)c1cc(Cl)nc(Cl)n1 [Compound 1-111]
10: weed control effect, Amaranthus retroflexus (activity level) ([1]; Dose 3000 g/ha) | weed control effect, Rorippa indica (activity level) ([2]; Dose 3000 g/ha) | weed control effect, Veronica polita (activity level) ([3]; Dose 3000 g/ha) | weed control effect, Chenopodiaceae (activity level) ([4]; Dose 3000 g/ha)

Oc1cc(C(F)(F)F)nnc1-c1cncc(Cl)c1 [Compound 770]
10: weed control effect (activity level), Amaranthus retroflexus ([1]; Dose 3000 g/ha) | weed control effect (activity level), Rorippa indica ([2]; Dose 3000 g/ha) | weed control effect (activity level), Veronica polita ([3]; Dose 3000 g/ha) | weed control effect (activity level), Chenopodiaceae ([4]; Dose 3000 g/ha)

CC(=O)CC(=O)Oc1cc(C(F)(F)F)nnc1-c1ccc(F)cc1 [Compound 1-76]
10: weed control effect, Amaranthus retroflexus (activity level) ([1]; Dose 3000 g/ha) | weed control effect, Rorippa indica (activity level) ([2]; Dose 3000 g/ha) | weed control effect, Veronica polita (activity level) ([3]; Dose 3000 g/ha) | weed control effect, Chenopodiaceae (activity level) ([4]; Dose 3000 g/ha)

Cn1ccnc1S(=O)(=O)Oc1cc(C(F)(F)F)nnc1-c1cccc(F)c1 [Compound 1-150]
10: weed control effect, Amaranthus retroflexus (activity level) ([1]; Dose 3000 g/ha) | weed control effect, Rorippa indica (activity level) ([2]; Dose 3000 g/ha) | weed control effect, Veronica polita (activity level) ([3]; Dose 3000 g/ha) | weed control effect, Chenopodiaceae (activity level) ([4]; Dose 3000 g/ha)

O=C(COCc1ccccc1)Oc1cc(C(F)(F)F)nnc1-c1ccc(F)c(F)c1 [Compound 1-100]
10: weed control effect, Amaranthus retroflexus (activity level) ([1]; Dose 3000 g/ha) | weed control effect, Rorippa indica (activity level) ([2]; Dose 3000 g/ha) | weed control effect, Veronica polita (activity level) ([3]; Dose 3000 g/ha) | weed control effect, Chenopodiaceae (activity level) ([4]; Dose 3000 g/ha)

CCOc1cnn(C)c1-c1nnc(C(F)(F)F)cc1O [Compound 812]
10: weed control effect (activity level), Amaranthus retroflexus ([1]; Dose 3000 g/ha) | weed control effect (activity level), Rorippa indica ([2]; Dose 3000 g/ha) | weed control effect (activity level), Veronica polita ([3]; Dose 3000 g/ha) | weed control effect (activity level), Chenopodiaceae ([4]; Dose 3000 g/ha)

Oc1cc(C(F)(F)F)nnc1-c1cc(F)ccc1F [Compound 34]
10: weed control effect (activity level), Amaranthus retroflexus ([1]; dose 1000 g/ha) | weed control effect (activity level), Rorippa indica ([2]; dose 1000 g/ha) | weed control effect (activity level), Veronica polita ([3]; dose 1000 g/ha) | weed control effect (activity level), Chenopodiaceae ([4]; dose 1000 g/ha)
